From US9914747B2 (priority 2014, dated 2018) come the findings set out here.

Usually EC50 stands for the midpoint of the concentration-response curve.

Each structure is given as a SMILES string.

The subject of the test is recombinant NL4-3 virus (NLRluc, Renilla luciferase in nef, Gag P373S). In words: HIV Cell Culture Assay (luciferase reporter virus in MT-2 cells). The test is classed as cell-based. The settings on record: NL43, read-out: WT EC50. As for the experimental part:
MT-2 cells and 293T cells were obtained from the NIH AIDS Research and Reference Reagent Program. MT-2 cells were propagated in RPMI 1640 media supplemented with 10% heat inactivated fetal bovine serum, […]. The 293T cells were propagated in DMEM media supplemented with 10% heat inactivated fetal bovine serum (FBS), 100 units/mL penicillin G and 100 μg/mL streptomycin. The proviral DNA clone of NL4-3 was obtained from the NIH AIDS Research and Reference Reagent Program. A recombinant NL4-3 virus, in which a section of the nef gene from NL4-3 was replaced with the Renilla luciferase gene, was used as a reference virus. In addition, residue Gag P373 was converted to P373S. Briefly, the recombinant virus was prepared by transfection of the altered proviral clone of NL4-3. Transfections were performed in 293T cells using LipofectAMINE PLUS from Invitrogen (Carlsbad, Calif.), according to manufacturer's instruction. The virus was titered in MT-2 cells using luciferase enzyme activity as a marker. Luciferase was quantitated using the Dual Luciferase kit from Promega (Madison, Wis.), with modifications to the manufacturer's protocol. The diluted Passive Lysis solution was pre-mixed with the re-suspended Luciferase Assay Reagent and the re-suspended Stop & Glo Substrate (2:1:1 ratio). Fifty (50) […] of the mixture was added to each aspirated well on assay plates and luciferase activity was measured immediately on a Wallac TriLux (Perkin-Elmer). Antiviral activities of inhibitors toward the recombinant virus were quantified by measuring luciferase activity in cells infected for 4-5 days with NLRluc recombinants in the presence serial dilutions of the inhibitor. Biological Data Key for EC50
Background: Reporter assays use an easily measured gene product as a stand-in for the process of interest.
In the case of `C=C(C)[C@@H]1CC[C@]2(C(=O)C(=O)NCCCN3CCS(=O)(=O)CC3)CC[C@]3(C)[C@H](CC[C@@H]4[C@@]5(C)CC=C(c6ccc(C(=O)O)cc6)C(C)(C)[C@@H]5CC[C@]43C)[C@@H]12` [Example 8, 4-((1R,3aS,5aR,5bR,7aR,11aS,11bR,13aR,13bR)-3a-(2-((3-(1,1-dioxidothiomorpholino)propyl)amino)-2-oxoacetyl)-5a,5b,8,8,11a-pentamethyl-1-(prop-1-en-2-yl)-2,3,3a,4,5,5a,5b,6,7,7a,8,11,11a,11b,12,13,13a,13b-octadecahydro-1H-cyclopenta[a]chrysen-9-yl)benzoic acid], the EC50 was under 100 nM. Take `C=C(C)[C@@H]1CC[C@]2(/C=C/C(=O)N3CCS(=O)(=O)CC3)CC[C@]3(C)[C@H](CC[C@@H]4[C@@]5(C)CC=C(c6ccc(C(=O)O)cc6)C(C)(C)[C@@H]5CC[C@]43C)[C@@H]12` [Example 3, 4-((1R,3aR,5aR,5bR,7aR,11aS,11bR,13aR,13bR)-3a-((E)-3-(1,1-dioxidothiomorpholino)-3-oxoprop-1-en-1-yl)-5a,5b,8,8,11a-pentamethyl-1-(prop-1-en-2-yl)-2,3,3a,4,5,5a,5b,6,7,7a,8,11,11a,11b,12,13,13a,13b-octadecahydro-1H-cyclopenta[a]chrysen-9-yl)benzoic acid]: the EC50 is under 100 nM. With `C=C(C)[C@@H]1CC[C@]2(/C=C/C(=O)NCCCN3CCS(=O)(=O)CC3)CC[C@]3(C)[C@H](CC[C@@H]4[C@@]5(C)CC=C(c6ccc(C(=O)O)cc6)C(C)(C)[C@@H]5CC[C@]43C)[C@@H]12` [Example 4, 4-((1R,3aR,5aR,5bR,7aR,11aS,11bR,13aR,13bR)-3a-((E)-3-((3-(1,1-dioxidothiomorpholino)propyl)amino)-3-oxoprop-1-en-1-yl)-5a,5b,8,8,11a-pentamethyl-1-(prop-1-en-2-yl)-2,3,3a,4,5,5a,5b,6,7,7a,8,11,11a,11b,12,13,13a,13b-octadecahydro-1H-cyclopenta[a]chrysen-9-yl)benzoic acid] the figure was over 100 nM; with `CC(C)[C@@H]1CC[C@]2(C(O)CNCCN(C)C)CC[C@]3(C)[C@H](CC[C@@H]4[C@@]5(C)CC=C(C6=CC[C@](CF)(C(=O)O)CC6)C(C)(C)[C@@H]5CC[C@]43C)[C@@H]12` (single isomer, unassigned) [Example 14], under 100 nM.

For `C=C(C)[C@@H]1CC[C@]2(C(=O)C(=O)NCCN3CCS(=O)(=O)CC3)CC[C@]3(C)[C@H](CC[C@@H]4[C@@]5(C)CC=C(c6ccc(C(=O)O)cc6)C(C)(C)[C@@H]5CC[C@]43C)[C@@H]12` [Example 9, 4-((1R,3aS,5aR,5bR,7aR,11aS,11bR,13aR,13bR)-3a-(2-((2-(1,1-dioxidothiomorpholino)ethyl)amino)-2-oxoacetyl)-5a,5b,8,8,11a-pentamethyl-1-(prop-1-en-2-yl)-2,3,3a,4,5,5a,5b,6,7,7a,8,11,11a,11b, 12,13,13a,13b-octadecahydro-1H-cyclopenta[a]chrysen-9-yl)benzoic acid], the EC50 was under 100 nM.

Regarding `C=C(C)[C@@H]1CC[C@]2(/C=C/C(=O)O)CC[C@]3(C)[C@H](CC[C@@H]4[C@@]5(C)CC=C(c6ccc(C(=O)O)cc6)C(C)(C)[C@@H]5CC[C@]43C)[C@@H]12` [Example 1, 4-((1R,3aR,5aR,5bR,7aR,11aS,11bR,13aR,13bR)-3a-((E)-2-carboxyvinyl)-5a,5b,8,8,8,11a-pentamethyl-1-(prop-1-en-2-yl)-2,3,3a,4,5,5a,5b,6,7,7a,8,11,11a,11b,12,13,13a,13b-octadecahydro-1H-cyclopenta[a]chrysen-9-yl)benzoic acid], the EC50 was determined as 20 nM. With `C=C(C)[C@@H]1CC[C@]2(/C=C/C(=O)N(C)OC)CC[C@]3(C)[C@H](CC[C@@H]4[C@@]5(C)CC=C(c6ccc(C(=O)O)cc6)C(C)(C)[C@@H]5CC[C@]43C)[C@@H]12` [Example 5, 4-((1R,3aR,5aR,5bR,7aR,11aS,11bR,13aR,13bR)-3a-((E)-3-(methoxy(methyl)amino)-3-oxoprop-1-en-1-yl)-5a,5b,8,8,11a-pentamethyl-1-(prop-1-en-2-yl)-2,3,3a,4,5,5a,5b,6,7,7a,8,11,11a,11b,12,13,13a,13b-octadecahydro-1H-cyclopenta[a]chrysen-9-yl)benzoic acid] the figure was under 100 nM; with `C=C(C)[C@@H]1CC[C@]2(CCC(=O)N3CCS(=O)(=O)CC3)CC[C@]3(C)[C@H](CC[C@@H]4[C@@]5(C)CC=C(c6ccc(C(=O)O)cc6)C(C)(C)[C@@H]5CC[C@]43C)[C@@H]12` [Example 7, 4-((1R,3aR,5aR,5bR,7aR,11aS,11bR,13aR,13bR)-3a-(3-(1,1-dioxidothiomorpholino)-3-oxopropyl)-5a,5b,8,8,11a-pentamethyl-1-(prop-1-en-2-yl)-2,3,3a,4,5,5a,5b,6,7,7a,8,11,11a,11b,12,13,13a,13b-octadecahydro-1H-cyclopenta[a]chrysen-9-yl)benzoic acid], 5.66 nM; with `C=C(C)[C@@H]1CC[C@]2(CCNCCN3CCS(=O)(=O)CC3)CC[C@]3(C)[C@H](CC[C@@H]4[C@@]5(C)CC=C(c6ccc(C(=O)O)cc6)C(C)(C)[C@@H]5CC[C@]43C)[C@@H]12` [Example 11, 4-((1R,3aR,5aR,5bR,7aR,11aS,11bR,13aR,13bR)-3a-(2-((2-(1,1-dioxidothiomorpholino)ethyl)amino)ethyl)-5a,5b,8,8,11a-pentamethyl-1-(prop-1-en-2-yl)-2,3,3a,4,5,5a,5b,6,7,7a,8,11,11a,11b,12,13,13a,13b-octadecahydro-1H-cyclopenta[a]chrysen-9-yl)benzoic acid], 1.24 nM. As for `C=C(C)[C@@H]1CC[C@]2(/C=C/C(=O)NCCN(C)C)CC[C@]3(C)[C@H](CC[C@@H]4[C@@]5(C)CC=C(c6ccc(C(=O)O)cc6)C(C)(C)[C@@H]5CC[C@]43C)[C@@H]12` [Example 2, 4-((1R,3aR,5aR,5bR,7aR,11aS,11bR,13aR,13bR)-3a-((E)-3-((2-(dimethylamino)ethyl)amino)-3-oxoprop-1-en-1-yl)-5a,5b,8,8,11a-pentamethyl-1-(prop-1-en-2-yl)-2,3,3a,4,5,5a,5b,6,7,7a,8,11,11a,11b,12,13,13a,13b-octadecahydro-1H-cyclopenta[a]chrysen-9-yl)benzoic acid], the EC50 was over 100 nM. With `CC(C)[C@@H]1CC[C@]2([C@H](O)CN(CCN(C)C)Cc3ccc(Cl)cc3)CC[C@]3(C)[C@H](CC[C@@H]4[C@@]5(C)CC=C(C6=CC[C@](CF)(C(=O)O)CC6)C(C)(C)[C@@H]5CC[C@]43C)[C@@H]12` (single isomer, unassigned) [Example 15] the figure was under 100 nM. With `C=C(C)[C@@H]1CC[C@]2(CCN3CCS(=O)(=O)CC3)CC[C@]3(C)[C@H](CC[C@@H]4[C@@]5(C)CC=C(c6ccc(C(=O)O)cc6)C(C)(C)[C@@H]5CC[C@]43C)[C@@H]12` [Example 10, 4-((1R,3aR,5aR,5bR,7aR,11aS,11bR,13aR,13bR)-3a-(2-(1,1-dioxidothiomorpholino)ethyl)-5a,5b,8,8,11a-pentamethyl-1-(prop-1-en-2-yl)-2,3,3a,4,5,5a,5b,6,7,7a,8,11,11a,11b,12,13,13a,13b-octadecahydro-1H-cyclopenta[a]chrysen-9-yl)benzoic acid] the figure was under 100 nM.

Take `CC(C)[C@@H]1CC[C@]2([C@@H](O)CN(CCN(C)C)Cc3ccc(Cl)cc3)CC[C@]3(C)[C@H](CC[C@@H]4[C@@]5(C)CC=C(C6=CC[C@](CF)(C(=O)O)CC6)C(C)(C)[C@@H]5CC[C@]43C)[C@@H]12` (single isomer, unassigned) [Example 16]: the EC50 worked out at 130 nM. For `C=C(C)[C@@H]1CC[C@]2(CCN(C)CCN3CCS(=O)(=O)CC3)CC[C@]3(C)[C@H](CC[C@@H]4[C@@]5(C)CC=C(c6ccc(C(=O)O)cc6)C(C)(C)[C@@H]5CC[C@]43C)[C@@H]12` [Example 12, 4-((1R,3aR,5aR,5bR,7aR,11aS,11bR,13aR,13bR)-3a-(2-((2-(1,1-dioxidothiomorpholino)ethyl)(methyl)amino)ethyl)-5a,5b,8,8,11a-pentamethyl-1-(prop-1-en-2-yl)-2,3,3a,4,5,5a,5b,6,7,7a,8,11,11a,11b,12,13,13a,13b-octadecahydro-1H-cyclopenta[a]chrysen-9-yl)benzoic acid], the EC50 was under 100 nM. With `C=C(C)[C@@H]1CC[C@]2(/C=C/CN3CCS(=O)(=O)CC3)CC[C@]3(C)[C@H](CC[C@@H]4[C@@]5(C)CC=C(c6ccc(C(=O)O)cc6)C(C)(C)[C@@H]5CC[C@]43C)[C@@H]12` [Example 6, 4-((1R,3aR,5aR,5bR,7aR,11aS,11bR,13aR,13bR)-3a-((E)-3-(1,1-dioxidothiomorpholino)prop-1-en-1-yl)-5a,5b,8,8,11a-pentamethyl-1-(prop-1-en-2-yl)-2,3,3a,4,5,5a,5b,6,7,7a,8,11,11a,11b,12,13,13a,13b-octadecahydro-1H-cyclopenta[a]chrysen-9-yl)benzoic acid] the figure was under 100 nM.
